Data: patent US20160015725A1, “METHODS OF CONTROLLING TUMOR BIOENERGETICS NETWORKS” (THE WISTAR INSTITUTE OF ANATOMY AND BIOLOGY, priority 2012, published 2016)

How the values were obtained:
LN229 cells [1] = test: Oxygen consumption, fluorimetric assay; assay type: cell-based, human; settings: tumor cells
Method: Treated tumor cells were analyzed using a fluorescence oxygen sensitive probe-based oxygen measuring kit (Luxcel Bioscience). For these experiments, LN229 cells were plated at increasing cell density (10-60×10^4/ml) on black body, clear bottom 96-well plates. The culture medium was replaced with 150 μl of phenol free DMEM containing 10% fetal bovine serum in the presence of 17-AAG or Gamitrinib (10 μM). Cells were further incubated with an oxygen-sensing probe (10 pmol/well), and 100 μl of heavy mineral oil was added to each well to seal the samples from ambient oxygen. After a 2 h incubation at 37° C., oxygen consumption was determined by quantifying the probe fluorescence signal in each well using a plate reader (Beckman Coulter) with excitation and emission wavelengths at 370 nm and 625 nm, respectively.

LN229 cells [2] = test: Cell viability by MTT; assay type: cell-based, human; settings: Gamitrinib combined with 2-DG vs each agent alone
Method: (§1) Various cell types were seeded in triplicate onto 96-well plates at 4×10^3 cells/well, treated with vehicle, Gamitrinib or 17-AAG (0-20 μM) for 12 h, and analyzed for changes in metabolic activity by an MTT assay. For determination of apoptosis, LN229 cells ([…]) were labeled for annexin V and propidium iodide (PI) (BD Biosciences), and analyzed by multiparametric flow cytometry (BD).

LN229 cells [3] = test: ROS production, H2-DCFA labeling; assay type: cell-based, human; settings: cytotoxic or non-cytotoxic concentrations, various time intervals
tumor cells = test: Mitochondrial permeability transition; assay type: cell-based, human; settings: non-cytotoxic concentrations
Method: (a) FIG. 18a is a bar graph showing percent viability of aliquots of the human tumor cell lines PC3, LNCaP, LN229, A549, or MCF-7 incubated with the indicated increasing concentrations of Gamitrinib for 5 hr and analyzed for changes in cell viability by direct cell counting. Mean±SD (n=2). (b) FIG. 18b are two parameter histogram dot plots of human glioblastoma LN229 cells left untreated (None) or incubated with 5 μM 17-AAG or Gamitrinib (Gam) for 5 hr and analyzed for changes in mitochondrial membrane potential by JC-1 staining and multiparametric flow cytometry. The mitochondrial uncoupler carbonyl cyanide 3-chlorophenylhydrazone (CCCP) was used as a control. The percentage of cells in each quadrant is indicated. FL1, green fluorescence; FL2, red fluorescence.

CypD = test: Mitochondrial protein folding (detergent solubility); assay type: cell-based, human; settings: increasing CHAPS concentrations
Method: Mitochondrial protein folding assays were performed as described (Moisoi et al., 2009). Briefly, mitochondrial fractions were isolated from vehicle- or Gamitrinib-treated LN229 cells (5 μM for 12 h) and suspended in equal volume of mitochondrial fractionation buffer containing increasing concentrations of CHAPS (0, 0.05, 0.1, 0.2, 0.5, 1 or 2%). Samples were incubated for 20 min on ice and detergent-insoluble protein aggregates were isolated by centrifugation (20,000 g) for 20 min. Pellets were processed for further analysis.

PC3 cells = test: ER stress luciferase-promoter reporter assay; assay type: cell-based, human; settings: PC3, 20 h
Method: In another series of experiments, PC3 cells were transfected with control or Grp78-directed siRNA, and analyzed for cell viability after 24 h by an MTT assay. For promoter analysis, PC3 cells were plated in triplicate onto 48-well plates at 1.4×10^4 cells/well, and cotransfected with Firefly Luciferase-reporters for IRE1, ATF6, PERK or CHOP and a constitutive reporter (pTK-Renilla Luc) in a 10:1 ratio using X-tremeGENE reagent (Roche). After 24 h, cells were treated with vehicle, Gamitrinib, tunicamycin or 2-DG and analyzed after 20 h for Firefly and Renilla luciferase activity using a Dual Luciferase Reporter Assay System (Promega). Transfection of plasmid DNAs was carried out with lipofectamine 2000 (Invitrogen) according to published protocols. A PPIase-defective CypD H168Q mutant cDNA was generated by Quick-Change site-directed mutagenesis (Stratagene) using primers 5′-[…]-3′ (forward) and 5′-[…]-3′ (reverse) (mutated sequences are bolded). The inserted mutation (bolded) was confirmed by DNA sequencing, and cloned in a pcDNA3.0 expression vector (Invitrogen) for reconstitution experiments in CypD−/− MEFs.

[4] = tested on: BRAF V600E melanoma cells; test: Melanoma cell viability by MTT, BRAF V600E; assay type: cell-based, human
Method: as §1

LN229 cells [5] = test: Glucose utilization; assay type: cell-based, human; settings: tumor cells
Method: (§2) Glucose concentrations in cell culture media were determined using a Glucose kit (Sigma-Aldrich). Briefly, 2×10^6 cells were seeded in 10 cm2 tissue culture dishes for 48 h, mixed with DMEM in the presence of Gamitrinib or 17-AAG (0-20 μM) for additional 4 h, and 200 μl aliquots of culture medium were incubated with 1 ml assay mixture, containing 1.5 mM NAD, 1 mM ATP, 1.0 U/ml Hexokinase, and 1.0 U/ml G6PDH. The glucose concentration under the various conditions was determined by measuring the amount of reduced NAD to NADH by G6PDH, and quantified spectrophotometrically at 340 nm wavelength. Extracellular lactate was measured by a colorometric assay kit (Abcam). Culture media from LN229 cells was replaced with DMEM containing vehicle (DMSO) or Gamitrinib (5 μM) for 5 h. Changes in lactate concentrations were measured by analysis of lactate-dependent conversion of NADP to NADPH in the presence of excess lactate dehydrogenase (LDH), and quantified by absorbance at 450 nm. All assays were performed at 25° C. under conditions of linear lactate-limited NADPH formation.

[6] = tested on: FF2508 or MRC5 primary human fibroblasts; test: AMPK activation in normal fibroblasts; assay type: cell-based
Method: For Western blotting, protein lysates were prepared from the different cell types in RIPA Buffer (150 mM NaCl, 1.0% Triton X-100, 0.5% sodium deoxycholate, 0.1% SDS, 50 mM Tris, pH 8.0) containing EDTA-free Protease Inhibitor Cocktail (Roche) and Phosphatase Inhibitor Cocktail 2 and 3 (Sigma Aldrich). Equal amounts of protein lysates were separated by SDS gel electrophoresis, transferred to PVDF membranes and incubated with primary antibodies of various specificities. Protein bands were detected by chemiluminescence.

[7] = tested on: AMP-activated kinase (AMPK); test: AMPK phosphorylation in tumor cells, Western blotting; assay type: cell-based, human
LN229 cells [8] = test: Apoptosis by annexin V / PI flow cytometry; assay type: cell-based, human; settings: HK-II silenced cells vs control transfectants
Method: as §1

LN229 cells [9] = test: Extracellular lactate; assay type: cell-based, human; settings: tumor cells
Method: as §2

`CO[C@H]1/C=C\C=C(/C)C(=O)NC2=CC(=O)C(NCCCCCC[P+](c3ccccc3)(c3ccccc3)c3ccccc3)=C(C[C@@H](C)C[C@H](OC)[C@H](O)[C@@H](C)/C=C(\C)[C@@H]1OC(N)=O)C2=O` [Gamitrinib] was tested, and the oxygen consumption (LN229 cells [1]) was “reduced”, the “tumor cell killing, combined with 2-DG” value (LN229 cells [2]) was “increased tumor cell killing” and the “production of reactive oxygen species (ROS)” value (LN229 cells [3]) was “had no effect on production of reactive oxygen species (ROS)”. For the same compound, the mitochondrial permeability transition (tumor cells) was “do not trigger mitochondrial permeability transition”, the COX-IV solubility (CypD) was “indistinguishable in control or Gamitrinib-treated cells” and the CypD solubility (CypD; vs untreated cultures) was “caused CypD to remain insoluble over a broad range of detergent concentrations”. For the same compound, the “minimal CHOP promoter activity” value (PC3 cells) was “transcriptionally induced”, the “transcriptional activation of response elements of IRE-1, ATF-6 and PERK” value (PC3 cells) was “comparably induced transcriptional activation” and the IC50 [4] was 1950 ± 210 nM. The glucose utilization (LN229 cells [5]) was “reduced glucose utilization”, the AMPK activation [6] was “did not activate AMPK” and the “AMPK and eIF2α phosphorylation, combined with 2-DG” value ([7]; Gamitrinib combined with 2-DG) was “maximally stimulated AMPK and eIF2α phosphorylation”. For the same compound, the “AMPK phosphorylation, combination of metformin plus Gamitrinib” value ([7]; combination with metformin) was “did not further stimulate AMPK phosphorylation”, the “AMPK activation compared with metformin” value ([7]; tumor cells) was “more prominent than that induced by metformin” and the “AMPK activation remained sustained” value ([7]; tumor cells) was ≥ 9 h. For the same compound, the AMPK phosphorylation ([7]; tumor cells) was “concentration dependent phosphorylation of AMP-activated kinase (AMPK)”, the “onset of AMPK activation” value ([7]; tumor cells) was ≤ 30 min and the “total AMPK levels” value ([7]; tumor cells) was “not affected”. For the same compound, the “Annexin V labeling” value (LN229 cells [8]) was “increased Annexin V labeling” and the extracellular lactate levels (LN229 cells [9]) was “reduced”.
